Source: US12698262B2, “Potassium salt of 2-[(4S)-8-fluoro-2-[4-(3-methoxyphenyl)piperazin-1-yl]-3-[2-methoxy-5-(trifluoromethyl)phenyl]-4H-quinazolin-4-yl]acetic acid” (AIC246 AG & Co. KG, priority 2020, dated 2026)
Values joined by “and” are separate entries in the source; they are usually repeats but may differ in a detail not shown here. Equal values may be shown once.

Experiment: Solubility test in buffers of different pHs (excess salt, HPLC determination of dissolved letermovir, final pH of mixture)
Type: physicochemical
Details: for Solubility / solubility at 2 h: stirred two hours at room temperature; for Solubility / Final pH / solubility at 2 h: Entries 1-3; for Final pH: final mixture; for solubility at 2 h: thermodynamic from solid
Description: Single Crystal X-ray Diffraction (SCXRD): The measured crystal was selected using a Zeiss stereomicroscope using polarized light and prepared under inert conditions immersed in perfluoropolyether as protecting oil for manipulation. Crystal structure determination was carried out using a Rigaku diffractometer equipped with a Pilatus 200K area detector, a Rigaku MicroMax-007HF microfocus rotating anode with MoKα radiation, Confocal Max Flux optics and an Oxford Cryosystems low temperature device Cryostream 700 plus (T=−173° C.). Full-sphere data collection was used with ω and φ scans. Programs used: Data collection and reduction with CrysAlisPro (Rigaku OD, 2015). V/0.60 A and absorption correction with Scale3 Abspack scaling algorithm (CrysAlisPro 1.171.39.12b (Rigaku OD, 2015)). Crystal structure solution was achieved using the computer program SHELXT (Sheldrick, G. M. Acta Cryst. 2015 A71, 3-8.) and visualized using the program SHELXle (C. B. Huebschle, G. M. Sheldrick & B. Dittrich; J. Appl. Cryst., 2011 44, 1281-1284). Missing atoms were subsequently located from difference Fourier synthesis and added to the atom list. Least-squares refinement on F0^2 using all measured intensities was carried out using the program SHELXL 2015 (SHELXL; Sheldrick, G. M. Acta Cryst., 2015 A71, 3-8.). All non-hydrogen atoms were refined including anisotropic displacement parameters. High Performance Liquid Chromatography (HPLC): • Instrument: Thermo Scientific Ultimate 3000 UHPLC • Column: Agilent Zorbax Eclipse XDB C-18, 150×4.6 mm, 5 μm • Flow rate: 1.0 ml/min • Solvent A: 0.1% formic acid in water • Solvent B: 0.1% formic acid in 100% methanol • Stop time: 27 minutes • Injection volume: 10 μl • Column temperature: 35° C. • Wavelength: 260 nm • Autosampler temperature: 10° C.
An excess of letermovir potassium mixed solvate (the salt of Example 1) or letermovir sodium mixed solvate (the salt of Example 4) was added to 2 mL of the corresponding buffer of different pHs. The saturated suspensions were stirred for two hours at room temperature. […] The final pH of the mixtures was also determined.

Structure (SMILES) | pH of the final solution (aqueous medium, when letermovir concentration is above 100 mg/mL) | concentration levels achieved by dissolving in aqueous medium (aqueous medium, with respect to letermovir free base) | Solubility (buffer pH 2) | Solubility (buffer pH 5) | Solubility (buffer pH 6) | Final pH (initial buffer pH 1) | Final pH (initial buffer pH 2) | Final pH (initial buffer pH 5) | Final pH (initial buffer pH 6) | Final pH (initial buffer pH 7) | Final pH (initial buffer pH 8) | Final pH (initial buffer pH 9) | solubility at 2 h (pH 2, simulated gastric fluid, buffer pH 2) | solubility at 2 h (pH 5, aqueous buffer, buffer pH 5) | solubility at 2 h (pH 6, aqueous buffer, buffer pH 6) | solubility at 2 h (pH 8, aqueous buffer, buffer pH 8) | solubility at 2 h (pH 9, aqueous buffer, buffer pH 9)
COc1cccc(N2CCN(C3=Nc4c(F)cccc4[C@H](CC(=O)[O-])N3c3cc(C(F)(F)F)ccc3OC)CC2)c1.[K+] [crystalline potassium salt of letermovir, potassium 2-[(4S)-8-fluoro-2-[4-(3-methoxyphenyl)piperazin-1-yl]-3-[2-methoxy-5-(trifluoromethyl)phenyl]-4H-quinazolin-4-yl]acetate] | 7.4-7.8 and 7-8 | above 100 mg/mL | – | – | – | – | – | – | – | – | – | – | – | – | – | – | –
COc1cccc(N2CCN(C3=Nc4c(F)cccc4[C@H](CC(=O)[O-])N3c3cc(C(F)(F)F)ccc3OC)CC2)c1.[K+] (mixture of isomers) [potassium salt mixed solvate, potassium 2-[(4S)-8-fluoro-2-[4-(3-methoxyphenyl)piperazin-1-yl]-3-[2-methoxy-5-(trifluoromethyl)phenyl]-4H-quinazolin-4-yl]acetate] | – | – | 10.63 mg/mL | 16.50 mg/mL | 1.17 mg/mL | 4.5 and 6.6 | 7.2 and 7.3 | 7.1 and 7.2 | 6.3 | 7.1 and 7.0 and 7.4 | 7.7 and 7.6 | 7.7 | 14.4 mg/mL | 14.3 mg/mL | 1.27 mg/mL | > 100 mg/mL | > 100 mg/mL
